According to patent US7173021B2, “Synthesis of temozolomide esters as potent anticancer pro-drugs for topical and transdermal applications in treatments of cancers” (Tianjin North Pharm Sci-Tech Co., Ltd., priority 2004, dated 2007):
Values after ≈ are worked out from the molar mass of the structure shown. “Also recorded” adds a separate entry of the source.

Columns and labels:
[1] = Solubility in 10% v/v propylene glycol; format: physicochemical; conditions: 10% v/v propylene glycol aqueous solution, aqueous with cosolvent or surfactant or cyclodextrin, thermodynamic from solid, ambient conditions, stirred 5 hours, read-out: Solubility, Concentration
Procedure: The potential of temozolomide esters used as topical and transdermal prodrugs is first proven through studies of their solubility. That is a decreased trend of solubility in an aqueous solution with increase of the length of the ester hydrocarbon alkyl chain of the temozolomide esters. It is clear the solubility constantly decreases from the methyl ester to the octyl ester, while temozolomide itself is 3.0 mg/ml similar to that of the methyl ester. […] Similarly to the esters, the solubility of the temozolomide amide products in the aqueous solution is considerably lower than that of temozolomide.
The solubility of temozolomide and the temozolomide esters was determined in 10% v/v propylene glycol by stirring an excess of the solid products at room temperature for 5 hours. The mixtures were then filtered, diluted with sample solvent and analysed using HPLC.

TJ899 (human glioma) = assay: In vitro tumour cell growth inhibition (MTT), TJ899; format: cell-based; conditions: Homo sapiens, Table 2 experiment, 96 h
Procedure: (§1) Temozolomide (white powder), temozolomide acid (white powder) and temozolomide-8-carboxylate hexyl (white scale crystal) were made in house. For the estimation of in vitro tumour cell growth inhibition, MV3 (human melanoma), M14 (human melanoma), B16 and B16-BL6 (mouse melanoma), SHG-44, TJ899 and TJ905 (human glioma), MCF-7 (human breast), HCT-8 (human colon), A549 (human non small lung), Bel7402 (human hepatocellulor), and BGC-823 (human stomach) were used. All tumour cells were cultured in RPMI-1640 medium supplemented with 10% fetal bovine serum (FBS) at 37° C. in a humidified 5% CO2 incubator.
(§2) After being harvested from culture flasks, a cell suspension of 1×10^4/ml was made by using 1640 RPMI medium supplemented with 10% fetal bovine serum. 100 μl (contains 1000 tumour cells) of the cell suspension was seeded per well of 96-well flat-bottom Costar culture plates at 37° C. in a humidified 5% CO2 incubator for 24 hrs before introducing drugs. Each tested compounds was made for five different concentrations and 100 μl of the each concentration was introduced into parallel three wells; control wells were added with 100 μl of plain medium alone; fluorouracil (a chemotherapeutic antitumour drug) was used as the positive control. Cells were then incubated for 96 h. Proliferative response and cell death were determined using MTT (3-(4,5-dimethylthiazolyl)-2,5-diphenyl-tetrazolium bromide) assay.
(§3) MTT assay: Following incubation of cells with the tested compounds for 96 h, 100 μl of 0.4 mg/ml MTT in RPMI 1640 was added to each well and the plate was incubated at 37° C. for 4 h. The plate was then centrifuged and followed by removal of medium. 150 μl of DMSO was then added to dissolve formazan crystal. DMSO-added plates were placed on a plate shaker for 5 min and absorbance was measured spectrophotometrically at 540 nm (with reference wavelength at 450 nm) using a Benchmark microtiter plate reader (Bio-Rad 550, Bio-Rad Laboratories, CA, U.S.A.).
(§4) The IC50 was calculated from the curve of the tested compound concentrations against the inhibition rate of the tumour cells. Table 1 summarized the experiment results by using six human cancer cell lines, HCT-8 (colon carcinoma), A549 (non small lung carcinoma), MCF-7 (breast), Bel7402 (hepatocellulor carcinoma), BGC-823 (stomach adenocarcinoma), and MV3 (melanoma). Table 2 summarized the results from the experiment results by using two human melanoma cell lines, MV3 and M14, two mouse melanoma cell lines, B16 and B16-BL6, and three human glioma cell lines, TJ899, SHG-44 and TJ905.

B16 (mouse melanoma) = assay: In vitro tumour cell growth inhibition (MTT), B16; format: cell-based; conditions: Mus musculus, Table 2 experiment, 96 h
Procedure: as §1, §2, §3, §4

B16-BL6 (mouse melanoma) = assay: In vitro tumour cell growth inhibition (MTT), B16-BL6; format: cell-based; conditions: Mus musculus, B16-BL6, Table 2 experiment, 96 h
Procedure: as §1, §2, §3, §4

MV3 (human melanoma) = assay: In vitro tumour cell growth inhibition (MTT), MV3; format: cell-based; conditions: Homo sapiens, 96 h
Procedure: as §1, §2, §3, §4

M14 (human melanoma) = assay: In vitro tumour cell growth inhibition (MTT), M14; format: cell-based; conditions: Homo sapiens, Table 2 experiment, 96 h
Procedure: as §1, §2, §3, §4

SHG-44 (human glioma) = assay: In vitro tumour cell growth inhibition (MTT), SHG-44; format: cell-based; conditions: Homo sapiens, SHG-44, Table 2 experiment, 96 h
Procedure: as §1, §2, §3, §4

[2] = Measured log P, octanol/water; format: physicochemical; conditions: octanol/water system; read-out: measured Log P (mLog P)
Procedure: Log P values of temozolomide (1) and the temozolomide esters were calculated using TSAR (Oxford Molecular, Oxford, UK), Molecular Modeling Pro (ChemSW, Fairfield, Calif.) and Chem Office 7.0 (CambridgeSoft, Cambridge, UK) programmes. Calculated Log P values were verified for temozolomide and the temozolomide hexyl ester by measuring the octanol/water coefficient (Table 4).

TJ905 (human glioma) = assay: In vitro tumour cell growth inhibition (MTT), TJ905; format: cell-based; conditions: Homo sapiens, Table 2 experiment, 96 h
Procedure: as §1, §2, §3, §4

[3] = In vitro permeation, Franz diffusion cell, silicone membrane; format: in vitro ADME; conditions: 37° C., 8 h, FIGS. 3-5
Excerpt: (§5) Jacketed Franz-type diffusion cells were used throughout the study and the barrier (12) (skin or silicone membrane) was mounted between the two chambers (14, 16) (2.8–3.4 cm^2 available surface area) with the dermal side in contact with the receiver solution (FIG. 2). The diffusion chambers (10) comprised a barrier of skin or silicone membrane (12) mounted between two chambers (14, 16). A cap (18) formed the donor compartment (14). The second receptor compartment (16) contained a receptor cell (20) with a stirring bar (22), sampling port (24) and cover (26). The stirring bar (22) was stirred by means of a magnet plate (28) having a rotating magnet. The receptor compartment comprised a water jacket (30) having a water inlet (32) and a water outlet (34).
(§6) Three types of materials were used in permeation studies. • 1. Silicone membrane (Silastic Medical Grade, 500-5, Dow Corning 0.005 in thick) was cut into circular sections (2 cm diameter) and washed with double distilled water prior to use. • 2. Full-thickness rat skin was obtained from Male Wistar rats aged 10 to 12 weeks and weighing 250 to 300 g, which were sacrificed by cervical dislocation, the abdomen shaved and the intact skin removed by dissection. Following removal of fat tissue, the skin was cut into circular pieces and used immediately. • 3. Samples of adult human epidermis were purchased from the Stephen Kirby Skin Bank (UK). The samples were from the leg, were stored at −18° C. and used within one week. Experiments
The membrane (as detailed above) was mounted on the diffusion cell (10), on which the surface area available for diffusion of each cell was about 2.8–3.4 cm^2. The cell cap (18) was placed on the membrane (12), and it was sealed with Parafilm® connecting the cell cap, membrane, and receptor cell. The capacity of each receptor cell was around 25–26 ml, which was filled with receptor solution and was completely in contact with the membrane sheet. During the course of experiment, the solution was continuously stirred by teflon-coated magnetic bar (22) placed in the cell (20). The temperature was maintained at 37° C. by a thermostatic water pump that circulated the water through the jacket (30) surrounding the cell body. The system was allowed to equilibrate under these conditions for half an hour. Finally, the prepared sample solution (2 ml) was added into the donor cap cell, and it was sealed with Parafilm® to minimize the evaporation of donor solution. 1 ml of receptor solution was removed every 30 minutes for 5 hours and then every 60 minutes for a further 3 hours. The volumes withdrawn were always replaced with equal volumes of fresh receptor solution to maintain constant volume. The concentration of each sample solution was determined by using HPLC.
For every sample, six determinations were performed on human and rat skin, and three determinations were carried out through artificial silicone membrane.
(§7) As stated above, after the removal of receptor solution, the receiver compartment was refilled with an identical volume of receptor fluid. This causes of the dilution of receptor solution leading to an under determination of the sample concentration. As a consequence, it was necessary to mathematically correct each successive sample concentrations, in the present invention, which was determined by applying the following equation:
(§8) [formula] where Ct is the actual current concentration of drug in the receptor phase at time t, Cmt is the apparent (i.e. measured) current concentration of drug in the receptor phase, Vs is the sample volume withdrawn for analysis, Vr is the volume of receptor solution, and ΣCm is the summed total of the previous measured concentrations.
(§9) Finally, the amount of drug penetrating the skin per unit area was calculated by dividing the obtained concentrations by the surface area available for diffusion cell and this value was different for each individual cell. […]

[4] = test system: A549 (human non small lung); assay: In vitro tumour cell growth inhibition (MTT), A549; format: cell-based; conditions: Table 1 experiment, 96 h
Procedure: as §1, §2, §3
(§10) The IC50 was calculated from the curve of the tested compound concentrations against the inhibition rate of the tumour cells. […]

BGC-823 (human stomach) = assay: In vitro tumour cell growth inhibition (MTT), BGC-823; format: cell-based; conditions: Table 1 experiment, 96 h
Procedure: as §1, §2, §3, §10

[5] = test system: Bel7402 (human hepatocellulor); assay: In vitro tumour cell growth inhibition (MTT), Bel-7402; format: cell-based; conditions: Table 1 experiment, 96 h
Procedure: as §1, §2, §3, §10

MCF-7 (human breast) = assay: In vitro tumour cell growth inhibition (MTT), MCF-7; format: cell-based; conditions: MCF7, Table 1 experiment, 96 h
Procedure: as §1, §2, §3, §10

HCT-8 (human colon) = assay: In vitro tumour cell growth inhibition (MTT), HCT-8; format: cell-based; conditions: Table 1 experiment, 96 h
Procedure: as §1, §2, §3, §10

TLX5 lymphoma cell line = conditions: Tsang 1990; cited from earlier work
[6] = In vitro permeation and metabolism, Franz diffusion cell, human skin; format: in vitro ADME
Excerpt: as §5, §6
The membrane (as detailed above) was mounted on the diffusion cell (10), on which the surface area available for diffusion of each cell was about 2.8–3.4 cm^2. The cell cap (18) was placed on the membrane (12), and it was sealed with Parafilm® connecting the cell cap, membrane, and receptor cell. […] The concentration of each sample solution was determined by using HPLC. […]
as §7, with “This causes of the dilution of receptor solution leading to an under determination of the sample concentration.” left out
as §8, §9

pig liver esterase = assay: Enzymatic metabolizing study with pig liver esterase (1H NMR); format: in vitro ADME; conditions: 37° C., pH 7.4 buffer; ester complete at 10 minutes; amide followed up to 8 hours
Procedure: First the present invention establishes the metabolised process of the temozolomide esters by pig liver esterase in vitro. ^1H NMR spectra 1 (FIG. 1) records the degradation profile of the temozolomide methyl ester under incubation condition (Rathbone D L, 1999). […] Finally, at 10 minutes, the intensity of the singlet at 3.58 ppm grows to the grade similar to the original of the two singlets at 3.63 and 3.65 ppm, which while are completely eliminated. […] This discovery establishes the solid foundation for the temozolomide esters to be considered as the potential anticancer pro-drugs.
Enzymatic metabolizing studies of the temozolomide methyl ester was carried out using pig liver esterase enzyme from Sigma [a suspension in 3.2 M ammonium sulphate solution pH 8; 200 unit/mg protein (14 mg protein/ml)]. • A. To a NMR tube 2 mg of the temozolomide methyl ester was added, followed by 0.2 ml of d6-DMSO, 0.5 ml D2O of pH 7.4 sulphate buffer and finally 50 μl of the enzyme solution. Record a ^1H NMR spectrum immediately, then the mixture was incubated at 37° C. and record a ^1H NMR spectrum at each 5 minutes time interval. […] The samples were dissolved in d6-DMSO in an NMR tube, 50 μl of enzyme solution was added and the solution incubated at 37° C.

## Cn1nnc2c(C(N)=O)ncn2c1=O [Temozolomide, 8-Carbamoyl-3-methylimidazo[5,1-d]-1,2,3,5-tetrazine-4(3H)-one]
[1]
  solubility at 5 h: 3000 µg/mL (≈ 15500 µM)
TJ899 (human glioma)
  IC50: > 100 µg/mL
B16 (mouse melanoma)
  IC50: 61.9 µg/mL (≈ 319 µM)
B16-BL6 (mouse melanoma)
  IC50: > 100 µg/mL
MV3 (human melanoma); Table 2 experiment (separate)
  IC50: 7.86 µg/mL (≈ 40.5 µM)
M14 (human melanoma)
  IC50: > 100 µg/mL
SHG-44 (human glioma)
  IC50: 9.04 µg/mL (≈ 46.6 µM)
[2]
  logP: -0.66
TJ905 (human glioma)
  IC50: > 100 µg/mL
[3]
  Permeation through synthetic silicone membrane: can not pass through the synthetic membrane easily; also recorded: lowest permeation

## Cn1nnc2c(C(=O)O)ncn2c1=O [temozolomide acid, 3,4-dihydro-3-methyl-4-oxoimidazo[5,1-d]-1,2,3,5-tetrazine-8-carboxylic acid]
[4]
  IC50: > 19.5 µg/mL
TJ899 (human glioma)
  IC50: > 100 µg/mL
B16 (mouse melanoma)
  IC50: 36.2 µg/mL (≈ 185 µM)
B16-BL6 (mouse melanoma)
  IC50: 43.5 µg/mL (≈ 223 µM)
MV3 (human melanoma); Table 1 experiment
  IC50: 14.6 µg/mL (≈ 74.9 µM)
MV3 (human melanoma); Table 2 experiment (separate)
  IC50: 36 µg/mL (≈ 185 µM)
M14 (human melanoma)
  IC50: 99 µg/mL (≈ 507 µM)
BGC-823 (human stomach)
  IC50: > 19.5 µg/mL
[5]
  IC50: 17 µg/mL (≈ 86.9 µM)
MCF-7 (human breast)
  IC50: 14.9 µg/mL (≈ 76.4 µM)
SHG-44 (human glioma)
  IC50: 7.07 µg/mL (≈ 36.2 µM)
TJ905 (human glioma)
  IC50: > 100 µg/mL
HCT-8 (human colon)
  IC50: 18.5 µg/mL (≈ 94.9 µM)
TLX5 lymphoma cell line
  in vitro IC50 compared with temozolomide: almost identical to that of temozolomide

## CCCCNC(=O)c1ncn2c(=O)n(C)nnc12 [Temozolomide n-butyl amide, 3-Methyl-N-(n-butyl)-4-oxoimidazo[5,1-d]-1,2,3,5-tetrazine-8-carboxamide]
[6]; 37° C., FIG. 9
  Permeation through human skin: notably better than temozolomide
[6]; human skin
  Metabolism within human skin to temozolomide acid: resistant to metabolism
[1]
  solubility at 5 h: 1800 µg/mL (≈ 7190 µM)
Pig liver esterase
  Degradation to temozolomide acid by pig liver esterase: no the temozolomide acid was observed; also recorded: gradually decomposed into un-identifiable products without the observation of temozolomide acid
